{"source": "patent US20190314198A1", "about": "“Topical Ocular Delivery Methods and Devices for Use in the Same” (Kedalion Therapeutics, Inc., priority 2018, published 2019)", "key": {"eye of subjects": {"test_system": "eye of subjects", "test": "Presbyopia: pupil diameter after self-administered pilocarpine micro-dose", "type": "in vivo, human", "method": "A 10 μl micro-dose of a 1% pilocarpine solution was self-administered using an electromagnetic actuated fluid delivery device, e.g., as described above, by three subjects to their own eye. The age range of the subjects was 52 years to 68 years, and all subjects were male. The pilocarpine micro-dose was self-administered by the subjects.\nBaseline, pre-dose values of pupil diameter and near visual acuity in both eyes prior to dosing was measured for all subjects, and then following the baseline measurements, the subjects were dosed in only one eye (the eye with the poorer visual acuity) with the micro-dose pilocarpine solution. Approximately 45 to 60 minutes after dosing, pupil diameter and near visual acuity were again tested. Near visual acuity was measured using a Snellen card at a distance of 40 cm. A tabulation of results is given below in Table A."}, "[1]": {"test_system": "patients diagnosed with primary open angle glaucoma", "test": "Trial 2: intraocular pressure reduction (Goldmann applanation tonometry), AcuStream versus standard eye dropper", "type": "in vivo, human", "method": "Trial 2 compared the efficacy (dose volume equivalence) of 0.005% w/v latanoprost for intraocular pressure reduction when delivered via AcuStream™ (pre-trial calibration volume=9.2 μl) versus the standard eye dropper for topical drug delivery (approximate volume=30 μl).\nPatients included in Trial 2 have previously been diagnosed with primary open angle glaucoma on the basis of intraocular pressure and visual field testing, fundus examination or optical coherence tomography (OCT) data and are currently on prostaglandin analog medical therapy. Patients with corneal abnormalities that would interfere with accurate IOP measurements with applanation tonometry, use of an oral or topical ophthalmic steroids within the past 14 days from screening date, any active ocular surface or anterior segment disease, or progressive field loss during the past year were excluded from the study. Thirteen men and five women participated in the trial. […]\nAfter performing slit lamp examinations on each patient to verify eligibility and obtaining informed consent, intraocular pressure (IOP) was measured by a sole experienced examiner who was blind to the randomized conditions. […]\nLatanoprost solution was administered by a sole ophthalmologist to both eyes of each patient, based on the pre-determined randomized condition."}}}
{"smiles": "CC[C@@H]1C(=O)OC[C@@H]1Cc1cncn1C", "note": "[pilocarpine]", "values": [{"measurement": "mean reduction in pupil diameter", "setting": "eye of subjects; dosed eye, 10 μl micro-dose of 1% solution, all 3 subjects", "result": 0.70, "unit": "mm"}, {"measurement": "miotic effect in the non-dosed eye", "setting": "eye of subjects; non-dosed contralateral eye", "result": "no miotic effect"}]}
{"smiles": "CC(C)OC(=O)CCC/C=C\\C[C@@H]1[C@@H](CC[C@@H](O)CCc2ccccc2)[C@H](O)C[C@@H]1O", "note": "[latanoprost]", "values": [{"measurement": "difference in IOP reduction between AcuStream and standard dropper groups", "setting": "[1]; Wilcoxon Ranked Sum test, p=0.3447", "result": "no statistically significant differences"}, {"measurement": "post-instillation IOP of a single patient outlier (OD)", "setting": "[1]; control group (standard eye dropper), baseline IOP 30 mm Hg", "result": 17, "unit": "mm Hg"}]}
